This passage reports IC50 results from patent publication US11712438B2, “Phenyl derivatives as PGE2 receptor modulators” (IDORSIA PHARMACEUTICALS LTD, priority 2017, dated 2023).

Molecules are shown by their SMILES.

What all share (test): cell-based
Assay [1] has as its target EP2 (Homo sapiens, UniProt P43116).
For assay [2], the target named is PTRGER4 (EP4) (Homo sapiens, UniProt P35408).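 Note: assay plate preincubated 15 min at 37 °C, after which PGE2 was added at 20 nM final and incubation continued 120 min at 37 °C.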
Assay [3] has as its target PTGER2 (EP2) (Homo sapiens, UniProt P43116).
Description: The assay is using the PathHunter™ HEK 293 PTGER2 and PTGER4 b-arrestin cell lines from DiscoverX. The system is based on the Enzyme Fragment Complementation Technology. Two complementing fragments of the b-galactosidase enzyme are expressed within stably transfected cells. The larger portion of b-gal, termed EA for Enzyme Acceptor, is fused to the C-terminus of b-arrestin 2. The smaller fragment, termed ProLink™ tag, is fused to PTGER2 (EP2) or PTRGER4 (EP4) at the C-terminus. Upon activation, b-arrestin is recruited which forces the interaction of ProLink and EA, allowing complementation of the two fragments of b-gal and the formation of a functional enzyme which is capable of hydrolysing the substrate and generating a chemiluminescent signal.
The HEK 293 PTGER2 b-arrestin cells (DiscoverX 93-021-4C1) are detached from culture dishes with a cell dissociation buffer (Invitrogen, 13151-014), and collected in growing medium (GM: DMEM+Glutamax-I (Invitrogen 32430)/10% FCS, 1% Penicilin/streptomycin). 5000 cells per well of a 384 well plate (white with white bottom Greiner 781080) are seeded in 20 ul per well of GM. Plate is incubated at 37° C., 5% CO2 for 24 hours.
Stock solutions of test compounds are made at a concentration of 10 mM in DMSO, and serially diluted in DMSO to concentrations required for inhibition dose response curves (tested concentration range 10 μM-2 nM or 1 μM-0.2 nM).
PGE2 (Cayman 14010, stock solution: 10 mM in DMSO) is used as agonist at 5 μM final concentration, corresponding to EC80.
Five microliters of diluted compounds are transferred into the assay plate. Plate is pre-incubated 15 minutes at 37° C. Then five microliters of PGE2 (final conc. 5 μM) are transferred into the assay plate. Plate is incubated 120 minutes at 37° C.
Twelve μl of reagent are transferred to the assay plate and incubate for 1 hour at room temperature in the dark. Luminescence counts are read on a BMG Fluostar Optima reader according to manufacturer's instructions.
For each compound concentration calculate of the percentage of activity compared to DMSO control value as average±STDEV. (each concentration is measured in duplicate)
When compounds were measured multiple times, mean values are given.
Assay [4] has as its target EP4 (Homo sapiens, UniProt P35408).

Chain of EP4 (P35408 whole entry): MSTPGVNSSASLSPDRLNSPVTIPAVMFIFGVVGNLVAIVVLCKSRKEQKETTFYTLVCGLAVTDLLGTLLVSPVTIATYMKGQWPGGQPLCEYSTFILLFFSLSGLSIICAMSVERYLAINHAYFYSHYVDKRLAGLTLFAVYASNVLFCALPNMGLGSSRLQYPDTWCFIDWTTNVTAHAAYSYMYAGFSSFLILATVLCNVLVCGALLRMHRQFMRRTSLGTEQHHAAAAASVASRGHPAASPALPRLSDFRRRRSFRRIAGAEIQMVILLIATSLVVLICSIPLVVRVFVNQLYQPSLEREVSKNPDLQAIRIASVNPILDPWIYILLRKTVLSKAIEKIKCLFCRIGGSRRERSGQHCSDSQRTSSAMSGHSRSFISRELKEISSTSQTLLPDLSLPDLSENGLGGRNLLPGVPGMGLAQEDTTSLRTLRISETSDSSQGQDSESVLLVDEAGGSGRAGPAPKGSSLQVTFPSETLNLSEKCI
Chain of PTRGER4 (EP4) (P35408 whole entry): as above
Chain of PTGER2 (EP2) (P43116 whole entry): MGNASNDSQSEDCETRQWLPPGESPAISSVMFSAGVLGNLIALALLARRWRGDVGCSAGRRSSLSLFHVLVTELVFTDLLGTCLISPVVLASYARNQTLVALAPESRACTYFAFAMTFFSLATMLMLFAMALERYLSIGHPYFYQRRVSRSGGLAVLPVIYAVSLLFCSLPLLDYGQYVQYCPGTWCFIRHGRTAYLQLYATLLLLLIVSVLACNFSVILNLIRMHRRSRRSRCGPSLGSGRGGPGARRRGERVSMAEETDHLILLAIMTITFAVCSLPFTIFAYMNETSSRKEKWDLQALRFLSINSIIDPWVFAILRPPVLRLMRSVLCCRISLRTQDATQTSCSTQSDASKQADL
Chain of EP2 (P43116 whole entry): as above

For the molecule `O=c1[nH]c(-c2ccc(-c3cc(NCCc4c(F)cc(Br)cc4F)ncn3)s2)no1` [Example 135, 3-(5-{6-[2-(4-Bromo-2,6-difluoro-phenyl)-ethylamino]-pyrimidin-4-yl}-thiophen-2-yl)-[1,2,4]oxadiazol-5(4H)-one], the IC50 amounted to 15 nM in assay [1], 8 nM in assay [2], 26 nM in assay [3] and 34 nM in assay [4].

As for `CCOc1cc(-c2cc(NCCc3c(F)cc(Br)cc3F)ncn2)sc1C(=O)NS(C)(=O)=O` [Example 154, N-(5-{6-[2-(4-Bromo-2,6-difluoro-phenyl)-ethylamino]-pyrimidin-4-yl}-3-ethoxy-thiophene-2-carbonyl)-methanesulfonamide], the half-maximal inhibitory concentration (IC50) in assay [1] came out at 8 nM; in assay [2], 33 nM; in assay [3], 13 nM; in assay [4], 66 nM.

`CCOc1cc(-c2cc(NCCc3ccc(Cl)cc3Cl)ncn2)sc1-c1noc(=O)[nH]1` [Example 123, 3-(5-{6-[2-(2,4-Dichloro-phenyl)-ethylamino]-pyrimidin-4-yl}-3-ethoxy-thiophen-2-yl)-[1,2,4]oxadiazol-5(4H)-one]: the 50% inhibitory concentration (IC50) in assay [1] amounted to 32 nM; in assay [2] it was 27 nM; in assay [3], 29 nM; in assay [4] it was 19 nM.

With `O=C(O)c1[nH]c(-c2cc(NCCc3c(F)cc(Br)cc3F)ncn2)cc1C1CC1` [Example 271, 5-{6-[2-(4-Bromo-2,6-difluoro-phenyl)-ethylamino]-pyrimidin-4-yl}-3-cyclopropyl-1H-pyrrole-2-carboxylic acid], the IC50 is 151 nM in assay [1], 380 nM in assay [2], 36 nM in assay [3] and 1760 nM in assay [4].

In the case of `CCOc1cc(-c2cc(NCCc3c(F)cc(Br)cc3F)ncn2)ccc1-c1nnn[nH]1` [Example 23, [2-(4-Bromo-2,6-difluoro-phenyl)-ethyl]-{6-[3-ethoxy-4-(1H-tetrazol-5yl)-phenyl]-pyrimidin-4-yl}-amine], the half-inhibitory concentration (IC50) in assay [1] is 28 nM; in assay [2] it was 60 nM; in assay [3] it was 73 nM; in assay [4] it was 61 nM.

Consider `CCOc1cc(-c2cc(NCCc3c(F)cc(Br)cc3OC)ncn2)sc1-c1noc(=O)[nH]1` [Example 87, 3-(5-{6-[2-(4-Bromo-2-fluoro-6-methoxy-phenyl)-ethylamino]-pyrimidin-4-yl}-3-ethoxy-thiophen-2yl)-[1,2,4]oxadiazol-5(4H)-one], for which the concentration for half-maximal inhibition (IC50) in assay [1] worked out at 28 nM; in assay [2], 5 nM; in assay [3] it was 11 nM; in assay [4], 17 nM.

Take `CCOc1cc(-c2cc(NCCc3cc(Br)ccc3OC)ncn2)sc1C(=O)O` [Example 71, 5-{6-[2-(5-Bromo-2-methoxy-phenyl)-ethylamino]-pyrimidin-4-yl}-3-ethoxy-thiophene-2-carboxylic acid]: the IC50 in assay [1] was 70 nM; in assay [2], 100 nM; in assay [3], 85 nM; in assay [4], 53 nM.

`CCOc1cc(-c2cc(NCCc3c(F)cc(F)cc3F)ncn2)sc1-c1noc(=O)[nH]1` [Example 101, 3-(3-Ethoxy-5-{6-[2-(2,4,6-trifluoro-phenyl)-ethylamino]-pyrimidin-4-yl}-thiophen-2-yl)-[1,2,4]oxadiazol-5(4H)-one]: the half-maximal inhibitory concentration (IC50) in assay [1] is 62 nM; in assay [2], 103 nM; in assay [3] it was 44 nM; in assay [4] it was 82 nM.

Regarding `CCc1cc(-c2cc(NCCc3c(F)cc(Br)cc3F)ncn2)ccc1C(=O)OC` [Example 245, 4-{6-[2-(4-Bromo-2,6-difluoro-phenyl)-ethylamino]-pyrimidin-4-yl}-2-ethyl-benzoic acid methyl ester], the half-maximal inhibitory concentration (IC50) in assay [1] was found to be 4630 nM; in assay [2] it was 307 nM; in assay [3], 392 nM; in assay [4] it was 6720 nM.

With `O=C(O)c1ccc(-c2cc(NCCc3c(F)cc(Br)cc3F)ncn2)cc1OC(F)F` [Example 41, 4-{6-[2-(4-Bromo-2,6-difluoro-phenyl)-ethylamino]-pyrimidin-4-yl}-2-difluoromethoxy-benzoic acid], the IC50 is 20 nM in assay [1], 342 nM in assay [2], 92 nM in assay [3] and 107 nM in assay [4].

`CCNc1cc(-c2cc(NCCc3c(F)cc(Br)cc3F)ncn2)ccc1C(N)=O` [Example 217, 4-{6-[2-(4-Bromo-2,6-difluoro-phenyl)-ethylamino]-pyrimidin-4-yl}-2-ethylamino-benzamide]: the IC50 in assay [1] is 134 nM; in assay [2], 29 nM; in assay [3], 20 nM; in assay [4], 79 nM.

`CCOc1cc(-c2cc(NCCc3cc(C)c(C)cc3OC)ncn2)ccc1C(=O)O` [Example 7, 2-Ethoxy-4-{6-[2-(2-methoxy-4,5-dimethyl-phenyl)-ethylamino]-pyrimidin-4-yl}-benzoic acid]: the IC50 in assay [1] is 205 nM; in assay [2] it was 759 nM; in assay [3] it was 441 nM; in assay [4] it was 140 nM.

For `CCCc1cc(-c2cc(NCCc3c(F)cc(Br)cc3F)ncn2)ccc1C(=O)O` [Example 35, 4-{6-[2-(4-Bromo-2,6-difluoro-phenyl)-ethylamino]-pyrimidin-4-yl}-2-propyl-benzoic acid], the IC50 in assay [1] was 86 nM; in assay [2], 242 nM; in assay [3] it was 109 nM; in assay [4], 433 nM.

For `CCc1cc(-c2cc(NCCc3c(F)cc(Br)cc3F)ncn2)sc1C(N)=O` [Example 281, 5-{6-[2-(4-Bromo-2,6-difluoro-phenyl)-ethylamino]-pyrimidin-4-yl}-3-ethyl-thiophene-2-carboxylic acid amide], the 50% inhibitory concentration (IC50) came out at 47 nM in assay [1], 37 nM in assay [2], 56 nM in assay [3] and 81 nM in assay [4].

Turning to `CC(C)Cc1cc(-c2cc(NCCc3c(F)cc(Br)cc3F)ncn2)ccc1C(=O)O` [Example 38, 4-{6-[2-(4-Bromo-2,6-difluoro-phenyl)-ethylamino]-pyrimidin-4-yl}-2-isobutyl-benzoic acid], the IC50 in assay [1] was 128 nM; in assay [2], 202 nM; in assay [3], 277 nM; in assay [4], 81 nM.

As for `CCOc1cc(-c2cc(NCCc3ccc(Cl)cc3C#N)ncn2)sc1-c1noc(=O)[nH]1` [Example 96], the 50% inhibitory concentration (IC50) in assay [1] is 58 nM; in assay [2] it was 43 nM; in assay [3] it was 24 nM; in assay [4], 106 nM.

On to `CCOc1cc(-c2cc(NCCc3ccccc3C)ncn2)sc1C(=O)O` [Example 55, 3-Ethoxy-5-[6-(2-o-tolyl-ethylamino)-pyrimidin-4-yl]-thiophene-2-carboxylic acid], for which the IC50 in assay [1] amounted to 65 nM; in assay [2] it was 1000 nM; in assay [3], 89 nM; in assay [4], 396 nM.

With `O=c1[nH]c(-c2ccc(-c3cc(NCCc4c(F)cc(Br)cc4F)ncn3)cc2)no1` [Example 235, 3-(4-{6-[2-(4-Bromo-2,6-difluoro-phenyl)-ethylamino]-pyrimidin-4-yl}-phenyl)-[1,2,4]oxadiazol-5(4H)-one], the IC50 in assay [1] was determined as 203 nM; in assay [2], 89 nM; in assay [3], 43 nM; in assay [4], 149 nM.

Turning to `CCCOc1cc(-c2cc(NCCc3c(F)cc(Br)cc3F)ncn2)ccc1C(=O)O` [Example 36, 4-{6-[2-(4-Bromo-2,6-difluoro-phenyl)-ethylamino]-pyrimidin-4-yl}-2-propoxy-benzoic acid], the IC50 in assay [1] is 91 nM; in assay [2] it was 684 nM; in assay [3] it was 70 nM; in assay [4], 951 nM.

For the molecule `O=C(O)c1sc(-c2cc(NCCc3c(F)cc(Br)cc3F)ncn2)cc1Cl` [Example 31, 5-{6-[2-(4-Bromo-2,6-difluoro-phenyl)-ethylamino]-pyrimidin-4-yl}-3-chloro-thiophene-2-carboxylic acid], the half-inhibitory concentration (IC50) in assay [1] was determined as 8 nM; in assay [2] it was 100 nM; in assay [3] it was 39 nM; in assay [4], 14 nM.

Turning to `CNc1cc(-c2cc(NCCc3c(F)cc(Br)cc3F)ncn2)ccc1-c1noc(=O)[nH]1` [Example 296, 3-(4-{6-[2-(4-Bromo-2,6-difluoro-phenyl)-ethylamino]-pyrimidin-4-yl}-2-methylamino-phenyl)-[1,2,4]oxadiazol-5(4H)-one], the half-inhibitory concentration (IC50) in assay [1] came out at 44 nM; in assay [2] it was 9 nM; in assay [3], 12 nM; in assay [4], 14 nM.

With `CCOc1cc(-c2cc(NCCc3cc(Cl)ccc3Br)ncn2)sc1-c1noc(=O)[nH]1` [Example 94, 3-(5-{6-[2-(2-Bromo-5-chloro-phenyl)-ethylamino]-pyrimidin-4-yl}-3-ethoxy-thiophen-2-yl)-[1,2,4]oxadiazol-5(4H)-one], the IC50 amounted to 82 nM in assay [1], 90 nM in assay [2], 79 nM in assay [3] and 93 nM in assay [4].

Consider `CCOc1cc(-c2cc(NCCc3cccc(OC)c3OC)ncn2)sc1-c1noc(=O)[nH]1` [Example 119, 3-(5-{6-[2-(2,3-Dimethoxy-phenyl)-ethylamino]-pyrimidin-4-yl}-3-ethoxy-thiophen-2-yl)-[1,2,4]oxadiazol-5(4H)-one], for which the IC50 in assay [1] stood at 17 nM; in assay [2], 5 nM; in assay [3], 10 nM; in assay [4], 11 nM.

As to `CCOc1cc(-c2cc(NCCc3ccc(Br)cc3F)ncn2)sc1-c1noc(=O)[nH]1` [Example 125, 3-(5-{6-[2-(4-Bromo-2-fluoro-phenyl)-ethylamino]-pyrimidin-4-yl}-3-ethoxy-thiophen-2-yl)-[1,2,4]oxadiazol-5(4H)-one], the IC50 in assay [1] was found to be 49 nM; in assay [2], 3 nM; in assay [3], 11 nM; in assay [4], 5 nM.

On to `CCOc1cc(-c2cc(NCCc3ccc(F)cc3C#N)ncn2)sc1-c1noc(=O)[nH]1` [Example 97], for which the IC50 in assay [1] was found to be 144 nM; in assay [2], 95 nM; in assay [3] it was 131 nM; in assay [4] it was 127 nM.
